# Results as given in patent US11096985B2, “Antimicrobial peptides, their variants and uses” (priority 2015, dated 2021).
# Where a SMILES comes first, the peptide text is derived from it. [ ]: non-standard residue; d: D form.
# How the values were obtained:
# [1] = test system: clinical strains of Escherichia coli; test: MIC, clinical strains of E. coli; type: cell-based; parameters: unit: μg/ml; settings: microdilution, Muller Hinton broth-cation adjusted, 0.02% BSA, 0.2% acetic acid
# Summary of the method: (§1)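 MIC = lowest peptide concentration showing no visual growth after 20–24 h at 37° C. Range 0.125–128 μg/ml; bacteria at 5.0×10^5 cfu/ml in MH broth, polypropylene microdilution format; yeasts in potato dextrose broth.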
# [2] = test system: clinical strains of Pseudomonas aeruginosa; test: MIC, clinical strains of P. aeruginosa; type: cell-based; parameters: unit: μg/ml; settings: microdilution, Muller Hinton broth-cation adjusted, 0.02% BSA, 0.2% acetic acid
# Summary of the method: as §1
# [3] = test system: clinical strains of C. glabrata; test: MIC, clinical yeast strains, C. glabrata; type: cell-based, Candida glabrata; parameters: unit: μg/ml
# Summary of the method: as §1
# [4] = test system: clinical strains of C. quillermondiae; test: MIC, clinical yeast strains, C. quillermondiae; type: cell-based; settings: C. quillermondiae clinical yeast strain 1
# Summary of the method: as §1
# [5] = test system: clinical strains of Klebsiella pneumoniae; test: MIC, clinical strains of K. pneumoniae; type: cell-based; parameters: unit: μg/ml; settings: microdilution, Muller Hinton broth-cation adjusted, 0.02% BSA, 0.2% acetic acid
# Summary of the method: as §1
# [6] = test system: clinical strains of Enterobacter cloacae; test: MIC, clinical strains of Enterobacter cloacae; type: cell-based; parameters: unit: μg/ml; settings: microdilution, Muller Hinton broth-cation adjusted, 0.02% BSA, 0.2% acetic acid
# Summary of the method: as §1
# [7] = test system: clinical strains of C. parapsilosis; test: MIC, clinical yeast strains, C. parapsilosis; type: cell-based, Candida parapsilosis; parameters: unit: μg/ml
# Summary of the method: as §1
# [8] = test system: clinical strains of Candida albicans; test: MIC, clinical yeast strains, Candida albicans; type: cell-based; parameters: unit: μg/ml
# Summary of the method: as §1
# [9] = test system: clinical strains of Proteus mirabilis; test: MIC, clinical strains of Proteus mirabilis; type: cell-based; parameters: unit: µg/mL; settings: microdilution, Muller Hinton broth-cation adjusted, 0.02% BSA, 0.2% acetic acid
# Summary of the method: as §1
# [10] = test system: clinical strains of Staphylococcus aureus; test: MIC, clinical strains of S. aureus; type: cell-based; parameters: unit: μg/ml; settings: microdilution, Muller Hinton broth-cation adjusted, 0.02% BSA, 0.2% acetic acid
# Summary of the method: as §1
# [11] = test system: clinical strains of Serratia marcescens; test: MIC, clinical strains of Serratia marcescens; type: cell-based; parameters: unit: µg/mL; settings: microdilution, Muller Hinton broth-cation adjusted, 0.02% BSA, 0.2% acetic acid
# Summary of the method: as §1
# [12] = test system: clinical strains of Streptococcus pneumoniae; test: MIC, clinical strains of Streptococcus pneumoniae; type: cell-based; parameters: unit: µg/mL; settings: microdilution, Muller Hinton broth-cation adjusted, 0.02% BSA, 0.2% acetic acid
# Summary of the method: as §1
compound,measurement,setting,value
CC(C)C[C@@H](NC(=O)[C@H](N)CCCCN)C(=O)N[C@H](CCCCN)C(=O)N[C@H](Cc1c[nH]c2ccccc12)C(=O)N[C@H](Cc1ccccc1)C(=O)N[C@H](Cc1c[nH]c2ccccc12)C(=O)N[C@H](CC(C)C)C(=O)N[C@H](Cc1ccccc1)C(=O)N[C@H](CCCCN)C(=O)N[C@H](CCCCN)C(=O)N[C@H](CCCNC(=N)N)C(=O)O [Chain311D] (H-[dK][dL][dK][dW][dF][dW][dL][dF][dK][dK][dR]-OH),Minimum inhibitory concentration,[1]; Escherichia coli clinical strain 1,2
same,Minimum inhibitory concentration,[1]; Escherichia coli clinical strain 2,2
same,Minimum inhibitory concentration,[1]; Escherichia coli clinical strain 3,1
same,Minimum inhibitory concentration,[1]; Escherichia coli clinical strain 4,0.5
same,Minimum inhibitory concentration,[1]; Escherichia coli clinical strain 5,1
same,Minimum inhibitory concentration,[2]; Pseudomonas aeruginosa clinical strain 1,16
same,Minimum inhibitory concentration,[2]; Pseudomonas aeruginosa clinical strain 2,8
same,Minimum inhibitory concentration,[2]; Pseudomonas aeruginosa clinical strain 3,16
same,Minimum inhibitory concentration,[2]; Pseudomonas aeruginosa clinical strain 4,8
same,Minimum inhibitory concentration,[2]; Pseudomonas aeruginosa clinical strain 5,4
same,Minimum inhibitory concentration,[3]; C. glabrata clinical yeast strain 1,16
same,Minimum inhibitory concentration,[3]; C. glabrata clinical yeast strain 2,16
same,Minimum inhibitory concentration,[3]; C. glabrata clinical yeast strain 3,8
same,Minimum inhibitory concentration,[3]; C. glabrata clinical yeast strain 4,64
same,Minimum inhibitory concentration,[4],4
same,Minimum inhibitory concentration,[5]; Klebsiella pneumoniae clinical strain 1,8
same,Minimum inhibitory concentration,[5]; Klebsiella pneumoniae clinical strain 2,8
same,Minimum inhibitory concentration,[5]; Klebsiella pneumoniae clinical strain 3,4
same,Minimum inhibitory concentration,[5]; Klebsiella pneumoniae clinical strain 4,8
same,Minimum inhibitory concentration,[5]; Klebsiella pneumoniae clinical strain 5,4
same,Minimum inhibitory concentration,[6]; Enterobacter cloacae clinical strain 1,4
same,Minimum inhibitory concentration,[6]; Enterobacter cloacae clinical strain 2,4
same,Minimum inhibitory concentration,[6]; Enterobacter cloacae clinical strain 3,4
same,Minimum inhibitory concentration,[6]; Enterobacter cloacae clinical strain 4,4
same,Minimum inhibitory concentration,[6]; Enterobacter cloacae clinical strain 5,2
same,Minimum inhibitory concentration,[7]; C. parapsilosis clinical yeast strain 1,16
same,Minimum inhibitory concentration,[7]; C. parapsilosis clinical yeast strain 2,8
same,Minimum inhibitory concentration,[7]; C. parapsilosis clinical yeast strain 3,8
same,Minimum inhibitory concentration,[7]; C. parapsilosis clinical yeast strain 4,8
same,Minimum inhibitory concentration,[8]; Candida albicans clinical yeast strain 1,8
same,Minimum inhibitory concentration,[8]; Candida albicans clinical yeast strain 2,8
same,Minimum inhibitory concentration,[8]; Candida albicans clinical yeast strain 3,8
same,Minimum inhibitory concentration,[8]; Candida albicans clinical yeast strain 4,16
same,Minimum inhibitory concentration,[8]; Candida albicans clinical yeast strain 5,16
same,Minimum inhibitory concentration,[9]; Proteus mirabilis clinical strain 1,>128
same,Minimum inhibitory concentration,[9]; Proteus mirabilis clinical strain 2,128
same,Minimum inhibitory concentration,[9]; Proteus mirabilis clinical strain 3,128
same,Minimum inhibitory concentration,[9]; Proteus mirabilis clinical strain 4,>128
same,Minimum inhibitory concentration,[9]; Proteus mirabilis clinical strain 5,>128
same,Minimum inhibitory concentration,[10]; Staphylococcus aureus clinical strain 1,1
same,Minimum inhibitory concentration,[10]; Staphylococcus aureus clinical strain 2,1
same,Minimum inhibitory concentration,[10]; Staphylococcus aureus clinical strain 3,1
same,Minimum inhibitory concentration,[10]; Staphylococcus aureus clinical strain 4,1
same,Minimum inhibitory concentration,[10]; Staphylococcus aureus clinical strain 5,1
same,Minimum inhibitory concentration,[11]; Serratia marcescens clinical strain 1,>128
same,Minimum inhibitory concentration,[11]; Serratia marcescens clinical strain 2,>128
same,Minimum inhibitory concentration,[11]; Serratia marcescens clinical strain 3,>128
same,Minimum inhibitory concentration,[11]; Serratia marcescens clinical strain 4,>128
same,Minimum inhibitory concentration,[11]; Serratia marcescens clinical strain 5,>128
same,Minimum inhibitory concentration,[12]; Streptococcus pneumoniae clinical strain 1,16
same,Minimum inhibitory concentration,[12]; Streptococcus pneumoniae clinical strain 2,8
same,Minimum inhibitory concentration,[12]; Streptococcus pneumoniae clinical strain 3,16
same,Minimum inhibitory concentration,[12]; Streptococcus pneumoniae clinical strain 4,4
same,Minimum inhibitory concentration,[12]; Streptococcus pneumoniae clinical strain 5,8
